Measured values from US8691804B2 (Evotec AG, priority 2008, dated 2014).

What follows are compounds tested against T1, human H3 receptors (Homo sapiens, UniProt Q9Y5N1) (assay: cAMP quantification assay for human H3 receptor testing). Details: CHO-K1 cells expressing human H3 receptors; inhibition of agonist-induced decrease of cAMP; 100 nM histamine, 10 μM forskolin; read-out: Potency range (IC50 values).
T1 construct: host or cells: CHO-K1
Type: cell-based
Method: CHO—K1 cell line expressing human H3 receptors were purchased from Euroscreen (Gosselies, Belgium, Cat. no.: ES-392-C)
Human H3 receptor-expressing cell-lines were grown in Ham's F12 [Sigma, Cat. no. N6658], supplemented with 10% FBS [Sigma, Cat. no. F9665], 400 μg/ml G418 [Sigma, Cat. no. N1876] and 250 μg/ml Zeocin [Invitrogen, Cat. no. 46-0509]) according to the protocol provided by Euroscreen.
The assay measures the ability of test compounds to inhibit Histamine receptor agonist-induced decrease of intracellular free cAMP (receptor is Gi coupled).
Specifically, a cAMP quantification assay system from DiscoveRx (cAMP XS+; Cat. no. 90-0075) was used.
For the cAMP assay, confluent cells were detached from the culture vessels with 1× trypsin-EDTA solution (Sigma), and seeded into 384-well Costar plates (white, clear bottom, Cat. no. 3707) at a density of 10,000 cells per well. Cells were seeded in a volume of 50 μl in medium without antibiotics and incubated overnight in a humidified atmosphere with 5% CO2 at 37° C. The cAMP assay was performed according to the protocol provided by DiscoveRx.
The cell culture medium was removed and the cells washed once with PBS (50 μl per well). The plates were emptied by inversion and 7.5 μl/well of compound in PBS (containing 1 mM IBMX and 0.03% BSA) were added and incubated for 30 min at 37° C.
Subsequent 7.5 μl/well specific agonist solution was added and the plates for another 30 min incubated at 37° C.
hH3:100 nM histamine, 10 μM forskolin in PBS (containing 1 mM IBMX and 0.03% BSA)
After the incubation with the agonist, 5 μl/well cAMP XS antibody solution was added followed by 20 μl/well Gal/EII/Lysis (1:5:19)+ED (1:1). The plates were incubated for one hour at room temperature and afterwards 20 μl/well EA reagent was added. The luminescence was developed for approximately three hours at room temperature and the plates were read out using a ‘BMG Novostar’ plate reader.
Test compounds were assayed at 8 concentrations in triplicate. Serial 10-fold dilutions in 100% DMSO were made at a 100-times higher concentration than the final concentration and then diluted with a 2 step protocol in assay buffer to reach the required assay concentrations and 1% DMSO. […]

T1 sequence (Q9Y5N1 whole entry): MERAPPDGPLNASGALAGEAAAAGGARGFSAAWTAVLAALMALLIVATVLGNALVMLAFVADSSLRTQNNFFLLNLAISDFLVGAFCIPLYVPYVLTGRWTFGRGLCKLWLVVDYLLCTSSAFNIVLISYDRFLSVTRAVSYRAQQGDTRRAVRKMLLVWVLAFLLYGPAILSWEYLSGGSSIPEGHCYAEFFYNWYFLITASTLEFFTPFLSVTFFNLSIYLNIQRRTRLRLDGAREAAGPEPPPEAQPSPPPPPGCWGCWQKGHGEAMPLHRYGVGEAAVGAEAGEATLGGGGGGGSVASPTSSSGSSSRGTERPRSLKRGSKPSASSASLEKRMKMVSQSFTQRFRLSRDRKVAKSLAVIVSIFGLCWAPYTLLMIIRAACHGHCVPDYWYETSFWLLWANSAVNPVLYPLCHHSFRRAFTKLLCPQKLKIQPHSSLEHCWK

IC50 [nM]	SMILES
< 100	CNC(=O)c1ccc(OC2CN(C(=O)N3CCCN(C4CCC4)CC3)C2)c(F)c1 [Example 43, 4-({1-[(4-cyclobutyl-1,4-diazepan-1-yl)carbonyl]azetidin-3-yl}oxy)-3-fluoro-N-methylbenzamide]
< 100	O=C(NC1CCCCC1)C1CN(C(=O)N2CCCN(C3CCC3)CC2)C1 [Example 131, 1-[(4-cyclobutyl-1,4-diazepan-1-yl)carbonyl]-N-cyclohexylazetidine-3-carboxamide]
< 100	O=C([C@H]1C[C@H](O)C1)N1CCCN(C2CCC2)CC1 [Example 105, trans-3-[(4-cyclobutyl-1,4-diazepan-1-yl)carbonyl]cyclobutanol]
< 100	CNC(=O)c1cnccc1OC1CN(C(=O)N2CCCN(C3CCC3)CC2)C1 [Example 85, 4-({1-[(4-cyclobutyl-1,4-diazepan-1-yl)carbonyl]azetidin-3-yl}oxy)-N-methylpyridine-3-carboxamide]
< 100	CNC(=O)c1ccc(OC2CN(C(=O)N3CCCN(C4CCCC4)CC3)C2)cn1 [Example 115, 5-({1-[(4-cyclopentyl-1,4-diazepan-1-yl)carbonyl]azetidin-3-yl}oxy)-N-methylpyridine-2-carboxamide]
< 100	Cc1cnc(OC2CN(C(=O)N3CCCN(C4CCC4)CC3)C2)c(C)n1 [Example 61, 1-cyclobutyl-4-({3-[(3,5-dimethylpyrazin-2-yl)oxy]azetidin-1-yl}carbonyl)-1,4-diazepane]
< 100	O=C(N1CCCN(C2CCC2)CC1)N1CC(Oc2ncccc2Cl)C1 [Example 76]
< 100	CNC(=O)c1ccc(NC2CN(C(=O)N3CCCN(C4CCC4)CC3)C2)cn1 [Example 110, 5-({1-[(4-cyclobutyl-1,4-diazepan-1-yl)carbonyl]azetidin-3-yl}amino)-N-methylpyridine-2-carboxamide]
< 100	CNC(=O)c1cccc(OC2CN(C(=O)N3CCCN(C4CCC4)CC3)C2)c1 [Example 75, 3-({1-[(4-cyclobutyl-1,4-diazepan-1-yl)carbonyl]azetidin-3-yl}oxy)-N-methylbenzamide]
< 100	O=C(C1CN(C(=O)N2CCCN(C3CCC3)CC2)C1)N1CCCCC1 [Example 124, 1-cyclobutyl-4-{[3-(piperidin-1-ylcarbonyl)azetidin-1-yl]carbonyl}-1,4-diazepane]
< 100	O=C(NC1CN(C(=O)N2CCCN(C3CCC3)CC2)C1)C1CCCCC1 [Example 141, N-{1-[(4-cyclobutyl-1,4-diazepan-1-yl)carbonyl]azetidin-3-yl}cyclohexanecarboxamide]
100 to 500	O=C([C@H]1C[C@@H](O)C1)N1CCCN(C2CCC2)CC1 [Example 101, cis-3-[(4-cyclobutyl-1,4-diazepan-1-yl)carbonyl]cyclobutanol]
< 100	O=C(N1CCCN(C2CCC2)CC1)N1CC(Oc2ccccc2)C1 [Example 15, 1-cyclobutyl-4-[(3-phenoxyazetidin-1-yl)carbonyl]-1,4-diazepane]

The next lines start with the compound.

SMILES	IC50 [nM]
O=C(N1CCCN(C2CCC2)CC1)N1CC(Oc2ccc(-n3cccn3)cc2)C1 [Example 87, 1-cyclobutyl-4-({3-[4-(1H-pyrazol-1-yl)phenoxy]azetidin-1-yl}carbonyl)-1,4-diazepane]	< 100
O=C(N1CCCN(C2CCC2)CC1)N1CC(Oc2cncc(F)c2)C1 [Example 45, 1-cyclobutyl-4-({3-[(5-fluoropyridin-3-yl)oxy]azetidin-1-yl}carbonyl)-1,4-diazepane]	< 100
CN1CCN(Cc2ccc(OC3CN(C(=O)N4CCCN(C5CCC5)CC4)C3)cc2)CC1 [Example 20, 1-cyclobutyl-4-[(3-{4-[(4-methylpiperazin-1-yl)methyl]phenoxy}azetidin-1-yl)carbonyl]-1,4-diazepane]	< 100
O=C(N1CCCN(C2CCC2)CC1)N1CC(Oc2ccn3ccnc3c2)C1 [Example 71, 7-({1-[(4-cyclobutyl-1,4-diazepan-1-yl)carbonyl]azetidin-3-yl}oxy)imidazo[1,2-a]pyridine]	< 100
CC(C)(O)c1ccc(OC2CN(C(=O)N3CCCN(C4CCC4)CC3)C2)cc1F [Example 60, 2-[4-({1-[(4-cyclobutyl-1,4-diazepan-1-yl)carbonyl]azetidin-3-yl}oxy)-2-fluorophenyl]propan-2-ol]	< 100
CNC(=O)c1ccc(O[C@H]2C[C@@H](C(=O)N3CCCN(C4CCC4)CC3)C2)nc1 [Example 102, 6-({cis-3-[(4-cyclobutyl-1,4-diazepan-1-yl)carbonyl]cyclobutyl}oxy)-N-methylpyridine-3-carboxamide]	< 100
O=C(N1CCCN(C2CCC2)CC1)N1CC(Oc2ccc(CN3CCC(F)(F)CC3)cc2)C1 [Example 21, 1-cyclobutyl-4-[(3-{4-[(4,4-difluoropiperidin-1-yl)methyl]phenoxy}azetidin-1-yl)carbonyl]-1,4-diazepane]	< 100
O=C(N1CCCN(C2CCC2)CC1)N1CC(Oc2cccc(Cl)c2)C1 [Example 32, 1-{[3-(3-chlorophenoxy)azetidin-1-yl]carbonyl}-4-cyclobutyl-1,4-diazepane]	< 100
O=C(N1CCCN(C2CCC2)CC1)N1CC(Oc2ccc(F)cc2)C1 [Example 13, 1-cyclobutyl-4-{[3-(4-fluorophenoxy)azetidin-1-yl]carbonyl}-1,4-diazepane]	< 100
N#Cc1ccc(COC2CN(C(=O)N3CCCN(C4CCC4)CC3)C2)cc1 [Example 98, 4-[({1-[(4-cyclobutyl-1,4-diazepan-1-yl)carbonyl]azetidin-3-yl}oxy)methyl]benzonitrile]	< 100
Nc1cc(OC2CN(C(=O)N3CCCN(C4CCC4)CC3)C2)ccn1 [Example 57, 4-({1-[(4-cyclobutyl-1,4-diazepan-1-yl)carbonyl]azetidin-3-yl}oxy)pyridin-2-amine]	< 100
Cc1cc(OC2CN(C(=O)N3CCCN(C4CCC4)CC3)C2)ccn1 [Example 27, 1-cyclobutyl-4-({3-[(2-methylpyridin-4-yl)oxy]azetidin-1-yl}carbonyl)-1,4-diazepane]	< 100
O=C(N1CCCN(C2CCC2)CC1)N1CC(Oc2ccc(C(F)(F)F)nc2)C1 [Example 94, 1-cyclobutyl-4-[(3-{[6-(trifluoromethyl)pyridin-3-yl]oxy}azetidin-1-yl)carbonyl]-1,4-diazepane]	< 100
O=C(N1CCCN(C2CCC2)CC1)N1CC(Oc2ccnc3ccccc23)C1 [Example 68, 4-({1-[(4-cyclobutyl-1,4-diazepan-1-yl)carbonyl]azetidin-3-yl}oxy)quinoline]	< 100
O=C(N1CCCN(C2CCC2)CC1)N1CC(Oc2cccn3ccnc23)C1 [Example 70, 8-({1-[(4-cyclobutyl-1,4-diazepan-1-yl)carbonyl]azetidin-3-yl}oxy)imidazo[1,2-a]pyridine]	< 100
O=C1CC(C(=O)N2CCCN(C3CCC3)CC2)C1 [Example 100, 3-[(4-cyclobutyl-1,4-diazepan-1-yl)carbonyl]cyclobutanone]	< 100
COc1cncc(OC2CN(C(=O)N3CCCN(C4CCC4)CC3)C2)c1 [Example 82, 1-cyclobutyl-4-({3-[(5-methoxypyridin-3-yl)oxy]azetidin-1-yl}carbonyl)-1,4-diazepane]	< 100
CN1CCc2cc(OCC3CN(C(=O)N4CCCN(C5CCC5)CC4)C3)ccc2C1=O [Example 137, 6-({1-[(4-cyclobutyl-1,4-diazepan-1-yl)carbonyl]azetidin-3-yl}methoxy)-2-methyl-3,4-dihydroisoquinolin-1(2H)-one]	< 100
O=C(N1CCCN(C2CCC2)CC1)N1CC(Oc2ccc(C(F)(F)F)cn2)C1 [Example 11, 1-cyclobutyl-4-[(3-{[5-(trifluoromethyl)pyridin-2-yl]oxy}azetidin-1-yl)carbonyl]-1,4-diazepane]	< 100
O=C(N1CCCN(C2CCC2)CC1)N1CC(Oc2ccc3[nH]ccc3c2)C1 [Example 154, 5-({1-[(4-cyclobutyl-1,4-diazepan-1-yl)carbonyl]azetidin-3-yl}oxy)-1H-indole]	< 100
CCN(CC)C(=O)c1ccc(OC2CN(C(=O)N3CCCN(C4CCC4)CC3)C2)cn1 [Example 7, 5-({1-[(4-cyclobutyl-1,4-diazepan-1-yl)carbonyl]azetidin-3-yl}oxy)-N,N-diethylpyridine-2-carboxamide]	< 100
N#Cc1cccc(OC2CN(C(=O)N3CCCN(C4CCC4)CC3)C2)c1 [Example 30, 3-({1-[(4-cyclobutyl-1,4-diazepan-1-yl)carbonyl]azetidin-3-yl}oxy)benzonitrile]	< 100
